Where a name gives a salt, the structure may show the parent alone. Read-outs that look alike come from different tables or passages of the source.
What was measured:
[1] = Concentration in blood in oral administration (blood Ampicillin level ratio); format: in vivo, mice (ddy)
Description: Each of the test compounds was orally administered in a dose of 50 mg/kg calculated as Ampicillin to four week old mice (ddy, body weight about 20 g, five per group) which had been caused to fast overnight (the amount is equivalent to 0.2 ml of a 5 mg/ml aqueous solution of Ampicillin). The blood was taken from the experimental animals periodically, and the concentration of Ampicillin in the serum was measured by a bioassay method. The blood Ampicillin level ratio was calculated from the following equation. [formula]

in vitro [2] = format: in vitro ADME; conditions: for metabolised at 1 h / metabolised at 2 h / metabolised at 4 h / metabolised at 6 h / metabolised at 20 h: simulated gastric juice, pH 1.2
Description: Each of the test compounds was dissolved to a predetermined concentration in an acidic aqueous medium (simulated gastric juice) having a pH of 1.2 prepared by adding 2.0 g of sodium chloride, 24 ml of 10% hydrochloric acid and 3.2 g of pepsin to 1000 ml of water. While the solution was shaken at 37° C., it was periodically sampled. The sampled solution was subjected to high-speed liquid chromatography using a reversed phase partition column, and the hydrolysis ratio of the compound was determined from a decrease in the peak height of the compound in the chromatogram.

in vitro [3] = format: in vitro ADME; conditions: for metabolised at 5 min / metabolised at 10 min / metabolised at 20 min / metabolised at 0.5 h / metabolised at 1 h: simulated intestinal juice, pH 7.5
Description: The procedure of (a) was repeated except that a basic aqueous medium (simulated intestinal juice) having a pH of 7.50 prepared by adding 35.8 g of disodium phosphate, 6.0 ml of 10% hydrochloric acid and 2.8 g of pancreatin to 1000 ml of water was used instead of the acidic aqueous medium.

[4] = Conversion to Ampicillin in 40% mouse blood (bioautography); format: in vitro ADME; conditions: 40% mouse blood in pH 7.4 phosphate buffer, 37° C., 10 minutes
Description: The resulting Ampicillin ester hydrochloride was incubated in 40% mouse blood in pH 7.4 phosphate buffer at 37° C. for 10 minutes, and then subjected to bioautography.

in vivo = conditions: mouse, mice, aqueous solution
[5] = cited from earlier work

Structure (SMILES) | metabolised at 1 h (in vitro [2]) | metabolised at 2 h (in vitro [2]) | metabolised at 4 h (in vitro [2]) | metabolised at 6 h (in vitro [2]) | metabolised at 20 h (in vitro [2]) | metabolised at 5 min (in vitro [3]) | metabolised at 10 min (in vitro [3]) | metabolised at 20 min (in vitro [3]) | metabolised at 0.5 h (in vitro [3]) | metabolised at 1 h (in vitro [3]) | Conversion to Ampicillin [4] | other results
CC1(C)S[C@@H]2[C@H](NC(=O)[C@H](N)c3ccccc3)C(=O)N2[C@H]1C(=O)OCc1oc(=O)oc1-c1ccccc1 [B, Ampicillin (2-oxo-5-phenyl-1,3-dioxolen-4-yl)methyl ester hydrochloride] | 9% | 20% | 30% | 35% | 65% | 18% | 37% | 53% | 70% | 90% | completely converted to Ampicillin | Duration of high Ampicillin concentrations in blood [1]: maintained over a long period of time; Rate of hydrolysis relative to that of Ampicillin phthalidyl ester (in vitro [2]): about one half; Rate of hydrolysis relative to that of Ampicillin phthalidyl ester (in vitro [3]): about one half; LD50 (in vivo; intravenous): 270 mg/kg; LD50 (in vivo; ip, intraperitoneal): 1770 mg/kg; LD50 (in vivo; oral): > 5000 mg/kg
CC(C)(C)C(=O)OCOC(=O)[C@@H]1N2C(=O)[C@@H](NC(=O)[C@H](N)c3ccccc3)[C@H]2SC1(C)C [Pivampicillin, Ampicillin pivaloyloxymethyl ester] | – | – | – | – | – | – | – | – | – | – | – | Blood Ampicillin concentrations in oral vs intramuscular administration ([5]; oral administration, British Pat. Nos. 1,215,812 and 1,364,672): comparable blood Ampicillin concentrations in oral administration to those obtained by intramuscular administration
CC1(C)S[C@@H]2[C@H](NC(=O)[C@H](N)c3ccccc3)C(=O)N2[C@H]1C(=O)OC1OC(=O)c2ccccc21 (stereo partly shown) [Talampicillin, Ampicillin phthalidyl ester] | – | – | – | – | – | – | – | – | – | – | – | Blood Ampicillin concentrations in oral vs intramuscular administration ([5]; in vivo, po): comparable blood Ampicillin concentrations in oral administration to those obtained by intramuscular administration

Second part, led by results:

metabolised at 1 h (in vitro [2]) | metabolised at 2 h (in vitro [2]) | metabolised at 4 h (in vitro [2]) | metabolised at 6 h (in vitro [2]) | metabolised at 20 h (in vitro [2]) | metabolised at 5 min (in vitro [3]) | metabolised at 10 min (in vitro [3]) | metabolised at 20 min (in vitro [3]) | metabolised at 0.5 h (in vitro [3]) | metabolised at 1 h (in vitro [3]) | Conversion to Ampicillin [4] | Structure (SMILES) | other results
7% | 15% | 20% | 28% | 52% | 16% | 32% | 48% | 65% | 80% | completely converted to Ampicillin | Cc1oc(=O)oc1COC(=O)[C@@H]1N2C(=O)[C@@H](NC(=O)[C@H](N)c3ccccc3)[C@H]2SC1(C)C [A, Ampicillin (5-methyl-2-oxo-1,3-dioxolen-4-yl)methyl ester hydrochloride] | Duration of high Ampicillin concentrations in blood [1]: maintained over a long period of time
– | – | – | – | – | – | – | – | – | – | completely converted to Ampicillin | CC1(C)S[C@@H]2[C@H](NC(=O)[C@H](N)c3ccccc3)C(=O)N2[C@H]1C(=O)OC1CCCc2oc(=O)oc21 (stereo partly shown) [Ampicillin (2,3-carbonyldioxy-2-cyclohexenyl)ester hydrochloride] | –
– | – | – | – | – | – | – | – | – | – | completely converted to Ampicillin | CC1(C)S[C@@H]2[C@H](NC(=O)[C@H](N)c3ccccc3)C(=O)N2[C@H]1C(=O)OCc1coc(=O)o1 [Ampicillin (2-oxo-1,3-dioxolen-4-yl)methyl ester hydrochloride] | –
18% | 31% | 43% | 55% | 100% | 39% | 61% | 90% | 95% | 100% | – | CC1(C)S[C@@H]2[C@H](NC(=O)[C@H](N)c3ccccc3)C(=O)N2[C@H]1C(=O)OC1OC(=O)c2ccccc21 (stereo partly shown) [C, Ampicillin phthalidyl ester hydrochloride, reference compound] | –

Reference: patent US4389408A, “Novel ampicillin esters and production thereof” (priority 1980, dated 1983)
